ChEMBL document CHEMBL1148255, “Facile synthesis of fused 1,2,4-triazolo[1,5-c]pyrimidine derivatives as human adenosine A3 receptor ligands” (Bioorg Med Chem Lett, 2004)

Target: Adenosine receptor A2a (Homo sapiens, UniProt P29274)
Assay: biochemical

Chain of Adenosine receptor A2a (P29274 whole entry): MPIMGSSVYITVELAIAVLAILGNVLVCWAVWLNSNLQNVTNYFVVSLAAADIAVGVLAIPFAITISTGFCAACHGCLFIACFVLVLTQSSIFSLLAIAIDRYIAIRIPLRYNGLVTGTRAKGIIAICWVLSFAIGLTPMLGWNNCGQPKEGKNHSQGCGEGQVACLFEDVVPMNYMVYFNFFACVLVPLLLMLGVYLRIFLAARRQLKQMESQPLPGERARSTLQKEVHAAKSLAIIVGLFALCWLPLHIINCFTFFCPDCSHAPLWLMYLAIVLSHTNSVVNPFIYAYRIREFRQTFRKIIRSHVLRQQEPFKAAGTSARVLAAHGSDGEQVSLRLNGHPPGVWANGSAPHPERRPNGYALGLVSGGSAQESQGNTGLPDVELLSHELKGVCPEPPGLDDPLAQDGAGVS

SMILES | IC50
CCCCc1nc2[nH]cnc2c2nc(-c3ccc(C(F)(F)F)cc3)nn12 | > 10000 nM
